Data from PubChem BioAssay (NCI).
“And” between values parts separate entries of the source, which are not always exact repeats. Identical values can stand only once.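 Compound exposure: 48 hours, 5 concentrations, 96-well plates. Abbreviation: GI50, concentration required for 50% inhibition of growth. TGI denotes the concentration required for complete inhibition of growth.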

What was measured:
Experiment in all cases: DTP human tumour cell line panel, 48 h
EKVX NSCLC = system: EKVX NSCLC
HCT-116 colon = system: HCT-116 colon
HOP-62 NSCLC = system: HOP-62 NSCLC
M14 melanoma = system: M14 melanoma
OVCAR-4 ovarian = system: OVCAR-4 ovarian
OVCAR-5 ovarian = system: OVCAR-5 ovarian
OVCAR-8 ovarian = system: OVCAR-8 ovarian
SK-MEL-5 melanoma = system: SK-MEL-5 melanoma
U251 CNS = system: U251 CNS
UACC-257 melanoma = system: UACC-257 melanoma

| SMILES | GI50 (EKVX NSCLC) | TGI (EKVX NSCLC) | GI50 (HCT-116 colon) | TGI (HCT-116 colon) | GI50 (HOP-62 NSCLC) | TGI (HOP-62 NSCLC) [µM] | GI50 (M14 melanoma) | TGI (M14 melanoma) | GI50 (OVCAR-4 ovarian) | TGI (OVCAR-4 ovarian) [µM] | GI50 (OVCAR-5 ovarian) | TGI (OVCAR-5 ovarian) | GI50 (OVCAR-8 ovarian) | TGI (OVCAR-8 ovarian) [µM] | GI50 (SK-MEL-5 melanoma) | TGI (SK-MEL-5 melanoma) | GI50 (U251 CNS) | TGI (U251 CNS) [µM] | GI50 (UACC-257 melanoma) | TGI (UACC-257 melanoma) |
| --- | --- | --- | --- | --- | --- | --- | --- | --- | --- | --- | --- | --- | --- | --- | --- | --- | --- | --- | --- | --- |
| CCN(CC)C(=S)SCN1C(=O)c2ccccc2S1(=O)=O | > 100 µM | > 100 µM | 54.2 µM | > 100 µM | 39.3 µM | > 100 | 20.9 µM | > 82.5 µM | 35.4 µM | > 100 | > 68.4 µM | > 100 µM | > 57.9 µM | > 100 | 6.67 µM | > 100 µM | 52.5 µM | > 100 | 56.3 µM | > 100 µM |
| CCOC(=O)C(CC/C=C\c1ccccc1)N1CCC[C@H]1C(=O)OC (stereo not given in full) |  | > 100 µM |  | > 100 µM |  | > 100 |  | > 100 µM |  | > 100 |  | > 100 µM |  | > 100 |  | > 100 µM |  | > 100 |  | > 100 µM |
| O=[N+]([O-])c1cc(C(F)(F)F)ccc1Sc1ccc(C(F)(F)F)cc1[N+](=O)[O-] | 41.7 µM | > 100 µM | 3.68 µM | > 100 µM | > 100 µM | > 100 | 7.23 µM | > 100 µM | 4.05 µM | > 100 | 43 µM | > 100 µM | 6.1 µM | > 100 | 16.7 µM | > 100 µM | 12.9 µM | > 100 | 6.65 µM | > 100 µM |
| CCCCCCCCCCCCCCCCCCOCC(CCP(=O)(CP(=O)(O)O)Oc1ccccc1)OCCCCCCCCCCCCCCCCCC (stereo not given) |  | > 100 µM |  | > 100 µM |  | > 100 |  | > 100 µM |  | > 100 |  | > 100 µM |  | > 100 |  | > 100 µM |  | > 100 |  | > 100 µM |
| Cc1cc(N2CCOCC2)nc(N(CCCNc2ccnc3cc(Cl)ccc23)Cc2ccco2)n1 | 3.73 µM | 16.7 µM | 2.2 µM | 10.5 µM | 1.73 µM | 6 | 1.86 µM | 4.22 µM | 3.07 µM | 15.2 | 4.23 µM | 19.3 µM | 3.15 µM | 12.1 | 1.82 µM | 3.65 µM | 3.15 µM | 10.6 | 2.73 µM | 7.33 µM |
| N#Cc1c(N)nc(N2CCOCC2)c(C#N)c1-c1ccccn1 | > 100 µM | > 100 µM | > 100 µM | > 100 µM | > 100 µM | > 100 | > 100 µM | > 100 µM | > 100 µM | > 100 | > 100 µM | > 100 µM | > 100 µM | > 100 | > 100 µM | > 100 µM | > 100 µM | > 100 | > 100 µM | > 100 µM |
| CC(=O)c1c(CO[N+](=O)[O-])n([O-])c2ccccc2[n+]1=O |  | > 100 µM |  | > 100 µM |  | > 100 |  | > 100 µM |  | > 100 |  | > 100 µM |  | > 100 |  | > 100 µM |  | > 100 |  | > 100 µM |
| COc1ccc2oc(C(=O)O)c3c2c1CCC3CCC(=O)O (stereo not given) |  | > 100 µM |  | > 100 µM |  | > 1 |  | > 1 µM |  | > 100 |  | > 100 µM |  | > 100 |  | > 100 µM |  | > 100 |  | > 100 µM |
| C/C(=C\c1cc(C(F)(F)F)n(-c2ccc(N)cc2)n1)[C@@H]1C[C@@H]2O[C@]2(C)CCC[C@H](C)[C@H](O)[C@@H](C)C(=O)C(C)(C)[C@@H](O)CC(=O)O1 | 0.23 µM | > 11.1 µM | 0.00775 µM | > 5.49 µM | 0.0762 µM | > 11.1 | 0.0166 µM | 0.096 µM | 2.19 µM | > 11.1 | 0.0488 µM | > 11.1 µM | 0.0557 µM | > 11.1 | 0.0235 µM | > 3.71 µM | 0.0477 µM | > 11.1 | 0.965 µM | > 11.1 µM |
| COc1cc(-c2csc(NC(=O)Nc3ccc(C(F)(F)F)cc3)n2)cc(OC)c1OC | 2.15 µM | 10.2 µM | 2.32 µM | 8.16 µM | 2.01 µM | 5.07 | 2 µM | 5.1 µM | 2.02 µM | 9.07 | 2.64 µM | 9.9 µM | 2.97 µM | 10.5 | 1.62 µM | 3 µM | 1.97 µM | 4.32 | 2.47 µM | 5.91 µM |
| O=C(N/N=C/c1ccc(O)cc1O)c1cccc(Nc2ccnc(C(F)(F)F)c2)c1 | 1.32 µM | 37.3 µM | 0.535 µM | 20.5 µM | 0.709 µM | 24.7 | 0.925 µM | 8.5 µM | 0.573 µM | 51.5 | 6.28 µM | 66.8 µM | 0.716 µM | 32.9 | 0.626 µM | 11.1 µM | 0.617 µM | 49 | 3.06 µM | 12.3 µM |
| O=C(NO)[C@@H](Cc1ccccc1)NS(=O)(=O)c1ccc(-c2ccccc2)cc1 | 15.7 µM | > 25 µM | 11.7 µM | > 25 µM | 18.1 µM | > 25 | > 25 µM | > 25 µM | > 25 µM | > 25 | 7.13 µM | > 25 µM | 22.5 µM | > 25 | 20.6 µM | > 25 µM | 21.3 µM | > 25 | > 25 µM | > 25 µM |
| O=C(CC(=O)c1cccc2ccccc12)C(=O)NC1C2CC3CC(C2)CC1C3 (stereo not given) |  | > 100 µM |  | > 100 µM |  | > 100 |  | > 100 µM |  | > 100 |  | > 100 µM |  | > 100 |  | > 100 µM |  | > 100 |  | > 100 µM |
| Cc1cc2c(C(N)=O)c(N)n(-c3c(C)ccc(O)c3C)c2nc1C | 21.8 µM | 98.7 µM | 2.52 µM | 15.2 µM | 13 µM | > 100 | 0.834 µM | 5.83 µM | 0.998 µM | 8.03 | 3.1 µM | 51.9 µM | 3.12 µM | 18 | 4.89 µM | 26.3 µM | 4.23 µM | 34.1 | 3.13 µM | 51.6 µM |
| NS(=O)(=O)CC1CC[CH-]CC1.[Cl-].[Cl-].[Cl-].[Cl-].[Cl-].[Sb+5].c1ccncc1 | > 100 µM | > 100 µM | > 100 µM | > 100 µM | > 100 µM | > 100 | > 100 µM | > 100 µM | > 100 µM | > 100 | > 100 µM | > 100 µM | > 100 µM | > 100 | > 100 µM | > 100 µM | > 100 µM | > 100 | > 100 µM | > 100 µM |
| COc1cc2nccc(Oc3ccc(NC(=O)Nc4cc(C)on4)c(Cl)c3)c2cc1OC | 3.02 µM and 4.69 µM | 49.6 µM and > 10 µM | 2.29 µM and 2.91 µM | 5.48 µM and > 10 µM | 5.58 µM and > 10 µM | > 100 | 2.55 µM and 3.05 µM | 7.83 µM and > 10 µM | 2.34 µM and 4.13 µM | > 65.2 | 4.15 µM and 4.08 µM | 42.9 µM and > 10 µM | 3.6 µM and 4.67 µM | > 100 | 2.04 µM and 2.81 µM | 5.69 µM and > 10 µM | 4.68 µM and 8.17 µM | > 100 | 3.73 µM and 5.54 µM | 33.9 µM and > 10 µM |
| CO/N=C(\COc1ccc2oc(-c3ccccc3)cc(=O)c2c1)c1ccc(OC)cc1 | 37.3 µM | > 100 µM | 16.9 µM | 33.8 µM | 17 µM | 33 | 21.4 µM | 49.2 µM | 19.7 µM | 73.9 | 24.6 µM | 82.7 µM | 31.8 µM | > 100 | 22.2 µM | 46.7 µM | 22.3 µM | 53.6 | 23.4 µM | 63.3 µM |
| N#CC1(C#N)C2C=CC(c3coc4cccc2c34)C1(C#N)C#N (stereo not given) |  | 33 µM |  | 6.08 µM |  | 46.5 |  | 25.3 µM |  | 47.9 |  | 30.8 µM |  | 10.4 |  | 28.8 µM |  | 33.9 |  | 23.1 µM |
| Cc1cccc2c1CCC21OC(=O)c2c1ccc1ccccc21 (stereo not given) |  | > 100 µM |  | > 100 µM |  | > 100 |  | 64.8 µM |  | > 100 |  | > 100 µM |  | > 100 |  | 46 µM |  | > 100 |  | 85.5 µM |
| Cc1ccc(NC(=O)CSc2nnc3n(Cc4ccccc4)c(=O)c4c(C)c(C(N)=O)sc4n23)cc1 | 95 µM | > 100 µM | 3.5 µM | > 100 µM | 21 µM | 56 | 26 µM | > 100 µM | > 100 µM | > 100 | 64.7 µM | > 100 µM | > 100 µM | > 100 | > 100 µM | > 100 µM | 5.17 µM | 52.9 | > 100 µM | > 100 µM |
| O=C1c2ccccc2-c2c1c1c(O)cccc1n2Cc1ccccn1 | 17.6 µM | 70 µM | 63.5 µM | > 100 µM | 84.9 µM | > 100 | 70.7 µM | > 100 µM | > 100 µM | > 100 | 58.5 µM | > 100 µM | 74 µM | > 100 | 8.77 µM | > 100 µM | 94.4 µM | > 100 | 23.1 µM | 60.4 µM |
